Measurements: publication PMC7570871, “Evaluation of a New ^177Lu-Labeled Somatostatin Analog for the Treatment of Tumors Expressing Somatostatin Receptor Subtypes 2 and 5” (Molecules, 2020)

Tests used:
[1] = system: dual SST2- and SST5-expressing xenografts; details: use of basic amino acids; reference not given; cited from earlier work
human SST2 = molecular target: T1, human SST2 (Homo sapiens, UniProt P30874); test: Competition binding assay with 125I-SS-14 on membranes of HEK-SST2 cells; details: 125I-SS-14 radioligand
T1 construct: expressed in transfected cells; host or cells: HEK cells (HEK-SST2), stably transfected
Description: (§1) Human Embryonic Kidney (HEK) cells were stably transfected with plasmids encoding the human SST2 and SST5 (HEK-SST2 and HEK-SST5) and cultivated as previously described. […] Nontransfected HEK cells were used as negative control.
(§2) Binding assays were performed as described previously.

human SST5 = molecular target: T2, human SST5 (Homo sapiens, UniProt P35346); test: Competition binding assay with 125I-SS-14 on membranes of HEK-SST5 cells; details: 125I-SS-14 radioligand
T2 construct: expressed in transfected cells; host or cells: HEK cells (HEK-SST5), stably transfected
Description: as §1, §2

T2 sequence (P35346 whole entry): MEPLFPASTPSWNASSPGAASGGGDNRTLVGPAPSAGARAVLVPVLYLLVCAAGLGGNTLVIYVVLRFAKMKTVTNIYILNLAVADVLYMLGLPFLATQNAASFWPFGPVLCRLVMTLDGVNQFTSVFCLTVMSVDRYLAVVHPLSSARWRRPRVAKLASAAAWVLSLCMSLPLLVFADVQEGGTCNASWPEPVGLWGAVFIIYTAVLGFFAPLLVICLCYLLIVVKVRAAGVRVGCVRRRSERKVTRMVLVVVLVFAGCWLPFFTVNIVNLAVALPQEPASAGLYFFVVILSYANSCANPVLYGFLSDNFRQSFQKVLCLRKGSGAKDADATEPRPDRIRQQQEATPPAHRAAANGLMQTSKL
T1 sequence (P30874 whole entry): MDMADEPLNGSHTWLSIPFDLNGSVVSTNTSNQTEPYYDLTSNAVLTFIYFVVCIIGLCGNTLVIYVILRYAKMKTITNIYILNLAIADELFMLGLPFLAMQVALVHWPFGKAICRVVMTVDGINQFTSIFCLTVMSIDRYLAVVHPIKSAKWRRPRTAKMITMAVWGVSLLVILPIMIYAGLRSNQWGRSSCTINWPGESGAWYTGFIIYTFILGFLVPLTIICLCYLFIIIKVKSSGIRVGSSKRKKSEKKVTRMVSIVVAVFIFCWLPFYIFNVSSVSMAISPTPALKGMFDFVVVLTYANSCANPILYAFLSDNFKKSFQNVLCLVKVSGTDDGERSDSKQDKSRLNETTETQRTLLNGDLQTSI

Molecule | Kidney uptake reduction with basic amino acids [1] | IC50 (human SST2) | IC50 (human SST5)
[^177Lu]Lu-DOTA-TATE | 40% | – | –
C[C@@H](O)[C@@H]1NC(=O)[C@H](CCCCN)NC(=O)[C@@H](Cc2c[nH]c3ccccc23)NC(=O)[C@H](Cc2cccc3ccccc23)NC(=O)[C@@H](NC(=O)[C@@H](Cc2ccccc2)NC(=O)CN2CCN(CC(=O)O)CCN(CC(=O)O)CCN(CC(=O)O)CC2)CSSC[C@@H](C(=O)N[C@H](CO)[C@@H](C)O)NC1=O [^natLu-DOTA-NOC, metal not drawn, reference compound] | – | 0.51 nM | 4.8 nM
